Measurements: patent US20200246284A1 (Academia Sinica, priority 2015, published 2020)
“And” between values parts separate entries of the source, which are not always exact repeats. Equal entries are not always repeated. Where two headings read alike, the source gives them in different places.

Columns and labels:
Granta = assay: Combination with BO-1055, MCL (Tables 28, 29); format: cell-based, human; settings: read-out: IC50 single drug
[1] = tested on: primary Pre-B-ALL cells in NSG mice; assay: Primary pre-B-ALL xenograft; format: in vivo, mouse; settings: Q10D2x from day 7
JEKO-1 = assay: Cytotoxicity mantle cell lymphoma
Description: (§1) After 72 hours, the cultures were pulsed with Alamar Blue overnight, and the fluorescent intensity of resulted cultures was measured by a Synergy H1 plate-reader (BioTek Inc).

[2] = Plasma protein binding, equilibrium dialysis; format: in vitro ADME; settings: rat plasma, read-out: % bound (converted)
Text: In drug discovery, the information on drug-plasma protein binding is valuable in evaluating and understanding, the absorption, distribution, metabolism and excretion (ADME)-related properties and the pharmacokinetic profile of drug candidates.

MA-10-W51 = assay: Cytotoxicity leukemia; format: cell-based, human; settings: growth factor dependent MA-10-W51
Text: Human cord blood CD34+ cells transduced with MLL-AF9 gene: MA-10, MA-18. Human bone marrow CD34+ cells transduced with MLL-AF9 gene: MA-23. Human cord blood CD34+ cells transduced with MLL-AF9 and N-ras genes: MA-9.3, […] ).

SUDHL-6 = settings: human
Description: as §1

Microsome stability = settings: rat, microsomes
[3] = tested on: Human Cancer Cell lines, Primary Patient Tumor Samples and normal tissues; assay: Sensitivity classes over panel of cancer lines and normal tissues; format: cell-based; settings: tumor cell lines of Table 12
SHP77 = assay: Cytotoxicity LCLC/SCLC; format: cell-based, human
[4] = for Microsome stability, turnover: 60 mins
[5] = tested on: spontaneous murine B-cell lymphoma; settings: mouse
hERG = hERG (Homo sapiens, UniProt Q12809); assay: in vitro
Chain of hERG (Q12809 whole entry): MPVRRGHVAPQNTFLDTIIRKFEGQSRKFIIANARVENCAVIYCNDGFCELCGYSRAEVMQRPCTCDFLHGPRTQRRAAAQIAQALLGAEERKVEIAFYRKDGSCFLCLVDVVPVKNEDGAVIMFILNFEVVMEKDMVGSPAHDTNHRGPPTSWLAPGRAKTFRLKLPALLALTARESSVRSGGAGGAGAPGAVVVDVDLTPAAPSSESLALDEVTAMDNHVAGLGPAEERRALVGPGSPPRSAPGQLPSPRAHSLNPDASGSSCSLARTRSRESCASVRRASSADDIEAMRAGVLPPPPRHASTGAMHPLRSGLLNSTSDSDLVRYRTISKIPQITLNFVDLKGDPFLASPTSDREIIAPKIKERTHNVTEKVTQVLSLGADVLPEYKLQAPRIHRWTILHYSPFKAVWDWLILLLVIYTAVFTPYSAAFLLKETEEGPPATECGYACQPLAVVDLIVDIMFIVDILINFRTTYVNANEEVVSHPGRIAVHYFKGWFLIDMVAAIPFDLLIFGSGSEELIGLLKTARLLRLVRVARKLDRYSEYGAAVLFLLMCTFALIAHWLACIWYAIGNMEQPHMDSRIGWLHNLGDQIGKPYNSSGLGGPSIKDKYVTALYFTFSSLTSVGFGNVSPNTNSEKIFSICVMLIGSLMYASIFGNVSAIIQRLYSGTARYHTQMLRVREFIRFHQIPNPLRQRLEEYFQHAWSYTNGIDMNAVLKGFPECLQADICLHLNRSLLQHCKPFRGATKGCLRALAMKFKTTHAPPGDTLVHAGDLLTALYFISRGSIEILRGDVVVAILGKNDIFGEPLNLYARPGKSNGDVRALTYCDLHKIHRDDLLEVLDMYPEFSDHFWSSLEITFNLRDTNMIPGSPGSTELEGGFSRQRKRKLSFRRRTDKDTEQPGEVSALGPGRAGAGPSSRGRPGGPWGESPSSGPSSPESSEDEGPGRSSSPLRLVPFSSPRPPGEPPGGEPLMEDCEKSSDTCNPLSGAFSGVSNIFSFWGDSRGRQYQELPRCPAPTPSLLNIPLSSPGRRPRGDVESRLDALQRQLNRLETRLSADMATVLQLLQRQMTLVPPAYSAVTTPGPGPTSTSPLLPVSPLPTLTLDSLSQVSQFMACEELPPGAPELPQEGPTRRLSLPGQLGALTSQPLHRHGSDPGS

OP9 calvarial stroma = assay: Cytotoxicity normal tissue 72 hr; format: cell-based; settings: OP9 (mouse)
Ly10 = settings: human
Description: as §1

C57Bl/6 mice = assay: Complete blood counts in healthy mice; format: in vivo, mouse
Text: This is particularly striking in the case of neutrophils, red blood cells and platelets, whose levels are the most frequent dose limiting toxicities seen in clinic evaluation of alkylating drug therapy. There was a 3-4-fold increase in monocytes. The only negative effect was a modest reduction in WBC numbers due to mild lymphopenia at day 10 in the BO-treated group.

CB CD34+ cells (+FCS) = assay: Cytotoxicity normal tissue; format: cell-based, human
SUDHL-4 = settings: human
Description: as §1

[6] = tested on: AML-2 CD34+ cells in NSG mice; assay: Primary MLL-AF9+ pediatric AML (AML-2) xenograft; format: in vivo, mouse; settings: 30 mg/kg Q10D2x from day 7
P-glycoprotein (P-gp) = P-glycoprotein (P-gp) (Homo sapiens, UniProt P08183); assay: P-gp mediated efflux in Caco-2 monolayers
Chain of P-glycoprotein (P-gp) (P08183 whole entry): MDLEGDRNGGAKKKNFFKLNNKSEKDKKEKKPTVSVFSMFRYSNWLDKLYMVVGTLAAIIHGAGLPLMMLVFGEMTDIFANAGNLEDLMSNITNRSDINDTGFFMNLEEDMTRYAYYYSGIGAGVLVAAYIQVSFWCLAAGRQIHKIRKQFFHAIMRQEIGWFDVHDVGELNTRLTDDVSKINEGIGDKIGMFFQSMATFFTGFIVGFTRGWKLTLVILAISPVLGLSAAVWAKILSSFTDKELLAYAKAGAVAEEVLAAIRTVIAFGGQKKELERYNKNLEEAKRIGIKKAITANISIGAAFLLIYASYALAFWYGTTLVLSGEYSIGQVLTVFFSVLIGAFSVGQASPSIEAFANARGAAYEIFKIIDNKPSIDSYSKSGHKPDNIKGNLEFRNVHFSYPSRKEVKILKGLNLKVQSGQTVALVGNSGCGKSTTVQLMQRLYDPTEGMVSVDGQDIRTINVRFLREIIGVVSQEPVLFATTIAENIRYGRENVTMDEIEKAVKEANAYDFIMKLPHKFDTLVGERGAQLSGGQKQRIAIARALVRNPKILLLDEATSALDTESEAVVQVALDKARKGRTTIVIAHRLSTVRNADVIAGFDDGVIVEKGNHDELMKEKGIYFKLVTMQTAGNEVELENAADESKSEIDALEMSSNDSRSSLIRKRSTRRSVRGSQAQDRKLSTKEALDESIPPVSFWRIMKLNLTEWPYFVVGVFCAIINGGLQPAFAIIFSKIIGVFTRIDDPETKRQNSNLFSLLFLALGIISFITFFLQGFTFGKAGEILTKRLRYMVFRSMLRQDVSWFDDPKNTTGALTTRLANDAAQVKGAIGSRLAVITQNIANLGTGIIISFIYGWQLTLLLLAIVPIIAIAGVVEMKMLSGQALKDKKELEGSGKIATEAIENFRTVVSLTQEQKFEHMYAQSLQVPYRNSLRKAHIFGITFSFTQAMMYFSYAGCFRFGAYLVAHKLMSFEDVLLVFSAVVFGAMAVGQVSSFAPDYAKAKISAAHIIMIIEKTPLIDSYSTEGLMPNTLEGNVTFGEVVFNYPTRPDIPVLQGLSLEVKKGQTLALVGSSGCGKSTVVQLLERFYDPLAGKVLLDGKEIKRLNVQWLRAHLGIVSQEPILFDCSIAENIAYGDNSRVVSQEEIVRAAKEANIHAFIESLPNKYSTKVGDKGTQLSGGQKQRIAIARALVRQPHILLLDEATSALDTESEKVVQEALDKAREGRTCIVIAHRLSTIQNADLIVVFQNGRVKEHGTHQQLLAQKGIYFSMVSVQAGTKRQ

AML cell lines = assay: Cytotoxicity, panel of AML cell lines; format: cell-based, human
Text: Human cord blood CD34+ cells transduced with MLL-AF9 gene: MA-10, MA-18. Human bone marrow CD34+ cells transduced with MLL-AF9 gene: MA-23. Human cord blood CD34+ cells transduced with MLL-AF9 and N-ras genes: MA-9.3, MA-9.6. • b) Growth factor independent leukemic cell lines. Human MA-10 cells transduced with Flt3 ITD (W51) were adapted to in vitro proliferation without growth factors (Moore Laboratory).

H211 = assay: Cytotoxicity SCLC 72 hr alamar blue; format: cell-based, human
EBC1 = format: cell-based, human
H1666 = format: cell-based, human
H3122 = format: cell-based, human
HL-1 cardiomyocyte = assay: Cytotoxicity normal tissue 72 hr; format: cell-based; settings: HL-1, 72 hr
H69 = assay: Cytotoxicity SCLC 72 hr alamar blue; format: cell-based, human
CALU-1 = format: cell-based, human
HCC2450 = format: cell-based, human
CALU-6 = format: cell-based, human
CL141T = format: cell-based, human
H322 = format: cell-based, human
H128 = assay: Cytotoxicity SCLC 72 hr alamar blue; format: cell-based, human
SK-LU-1 = format: cell-based, human
[7] = 30 mg/kg i.v. every other day x5
[8] = day 10, 30 mg/kg i.v. days 1,3,5,8,10

## CN(C)CCNC(=O)c1cccc(NC(=O)Nc2ccc(N(CCCl)CCCl)cc2)c1 [BO-1055, Ureidomustine]
Granta
  IC50: 5.26 µM and 5.5 µM and 6.55 µM
[1]
  reduction of tumor growth: 2 log
  survival longer than control: ~100 days
JEKO-1
  IC50: 0.27 µM
[2]; 2 h
  fraction unbound at 2 h, 20 μM: 0.0032
[2]; 4 h
  fraction unbound at 4 h, 20 μM: 0.0031
[2]; 6 h
  fraction unbound at 6 h, 20 μM: 0.0799
[2]; 24 h
  fraction unbound at 24 h, 20 μM: 0.248
MA-10-W51
  cytotoxicity, dose titration (FIG. 9): highly cytotoxic
SUDHL-6
  IC50: 5.93 µM
Microsome stability
  intrinsic clearance: High intrinsic clearance
[3]
  share of tested cell lines with IC50 in sub-μM range: 30%
SHP77
  IC50: 40 µM
[4]
  Microsome stability, turnover: 75%
[4]; listed as ureidomustine
  Microsome stability, turnover: 75% (60 mins turnover %)
[4]; RLM
  % Remaining at 60 min: 25%
[4]; RLM, 60 min
  MR (metabolic rate): 0.0203 nmol/min/mg
[5]
  IC50: 0.46 µM
hERG
  IC50: 12.6 ± 1.64 µM
OP9 calvarial stroma
  IC50: ≥ 10 µM
Ly10
  IC50: 0.12 µM
C57Bl/6 mice; [7]
  increase in monocytes: 3-4 fold
  suppression of hematologic parameters: no significant suppression
C57Bl/6 mice; [8]
  HCT: 46.30 ± 1.04%
  HGB: 13.08 ± 0.25 g/dL
  MCHC: 28.28 ± 0.42 g/dL
  MCV: 51.03 ± 1.25 fL
  MPV: 6.38 ± 0.09 fL
  PDW: 7.40 ± 0.24 fL
  PLT: 1108.3 ± 76.1 K/μL
  RBC: 9.08 ± 0.18 M/μL
  RDW-CV: 23.18 ± 0.64%
  RDW-SD: 32.48 ± 0.29 fL
  WBC: 5.34 ± 0.99 K/μL
CB CD34+ cells (+FCS); Homo sapiens, CB CD34+ cells, +FCS
  IC50: > 10 µM
CB CD34+ cells (+FCS); Homo sapiens, normal CB CD34+, FBS/FCS or serum free
  IC50: 9.9 to 10.2 µM
CB CD34+ cells (+FCS); normal CB CD34+, FBS/FCS or serum free
  IC50: 8.5 to 10.5 µM
SUDHL-4
  IC50: 1.95 µM
[6]
  survival longer than control: 48 days
P-glycoprotein (P-gp)
  P-gp assessment: Possible P-gp liabilities
AML cell lines; Homo sapiens, THP1 and MOLM13
  IC50: 0.18 to 0.45 µM
AML cell lines; MLL-AF9 transduced vs normal CB or BM CD34+
  increase of cytotoxicity by MLL-AF9: 25-40 fold

## N.N.[Cl][Pt][Cl] [Cisplatin]
H211
  IC50: 1.21 µM
EBC1
  IC50: ≥ 100 µM
H1666
  IC50: ≥ 20 µM
H3122
  IC50: ≥ 30 µM
HL-1 cardiomyocyte
  IC50: 47 µM
H69
  IC50: 3.42 µM
CALU-1
  IC50: ≥ 20 µM
HCC2450
  IC50: ≥ 80 µM
CALU-6
  IC50: 3.25 µM
CL141T
  IC50: 2.45 µM
H322
  IC50: ≥ 10 µM
H128
  IC50: 4.79 µM
SK-LU-1
  IC50: 6.94 µM
